“And” between values parts separate entries of the source, which are not always exact repeats. Equal values may be shown once. Ends that are not written are not given here.
Legend:
[1] = system: learning disorder-induced mouse; test: Y-maze test on learning disorder-induced (LPS) mouse; assay type: in vivo; settings: for Learning ability in Y-maze test: LPS-administered mice, Examples 6 and 7
Description: The learning disorder-alleviating activity of the GLP-1 derivative was evaluated by a Y-maze test on a learning disorder-induced mouse, using the FOS 12 solution of GLP-1 derivative.
As the learning disorder-induced mouse, ddY mice (5-7 week old, male, n=5) were administered with lipopolysaccharide (LPS) by 10 μg at three days before the test. Fifteen minutes before the administration of LPS, the mice were administered with GLP-1 derivative by 3 μg with the FOS 12 solution of GLP-1 derivative.
The Y-maze test was performed by using a device having three arms of the same size. The number of times that the mouse entered the different arm for consecutive three times was counted, and the result was divided by a number obtained by deducting 2 from the total number of times of entering the arm. The result was multiplied by 100, and used as a spontaneous alternation behavior (%).
(§1) As a control, mice (5-7 week old, male, n=5 or 7), intranasally administered a solvent without GLP-1 derivative by 4 μL 15 minutes before the administration of LPS, were subjected to the same test as the above. Further, mice that were not administered with LPS (vehicle) were subjected to the same test as the above. The error bar represents mean±SE (n=5 or 7), and the statistical processing was performed by Mann-Whitney test (*P<0.05, **P<0.01).
As the learning disorder-induced mouse, ddY mice (5-7 week old, male, n=6) administered with lipopolysaccharide (LPS) by 10 μg three days before the test were used. Fifteen minutes before the administration of LPS, the mice were administered with NmU derivative by 3 μg with the FOS 12 solution of NmU derivative. A Y-maze test was performed in the same manner as Example 6, and a spontaneous alternation behavior (%) was calculated from the measurement results.
as §1, with “n=6), which were” for “n=5 or 7),”, “NmU” for “GLP-1”, “mice” for “mice that were”, “(n=6),” for “(n=5 or 7),”, “(*P<0.01, **P<0.001).” for “(*P<0.05, **P<0.01).”

ddY mice [2] = test: Forced-swim test on a mouse; assay type: in vivo; settings: Example 3, mouse forced-swim test
Description: The anti-depression activity of the GLP-2 derivative was evaluated by a forced-swim test on a mouse. The test was performed by the following process.
Twenty-four hours before the test, ddY mice (5-7 week old, male, n=12) were subjected to a preliminary swimming for 15 minutes. The mice were administered GLP-2 derivative by 3.6 μg with the DMSO solution, on the day before the test and on the day for the test, respectively. Then, the test was performed in the same manner as Example 1, and the immobility time (s) was measured. As a control, mice (5-7 week old, male, n=12) were administered with a solution without GLP-2 derivative were subjected to a forced-swim test in the same manner. The error bar represents mean±SE (n=12), and the statistical processing was performed by Mann-Whitney test (*P<0.05).

rats = test: Forced-swim test on rats (anti-depression activity); assay type: in vivo, rat; settings: intranasal 18 μg/day
Description: The anti-depression activity of the GLP-2 derivative was evaluated by a forced-swim test on rats using the DMSO solution of GLP-2 derivative. The forced-swim test was performed in accordance with the following procedure.
One hour before the test, rats (8-10 week old, male, n=6) were transferred to the laboratory for habituation. The rats were intranasally administered with the DMSO solution of GLP-2 derivative by 18 μg/day for two days, 30 minutes before the test. The rats were allowed to swim for 15 minutes, one by one in a transparent plastic cylinder with a diameter of 18 cm and a height of 50 cm filled with water of 25±1° C. to a height of 30 cm. During the swimming, the immobility time (s) was measured. The rats after the test were wiped with a Kimtowel and placed back to a cage. The test was performed for consecutive 2 days, day 1 as a preliminary test and day 2 as a main test. As a control, rats (8-10 week old, male, n=6) were intranasally administered with a solvent without GLP-2 derivative by 10 μL and subjected to a forced-swim test in the same manner. The error bar represents mean±SE (n=6), and the statistical processing was performed by Mann-Whitney test (*P<0.05). […]

depression model mouse = test: Forced-swim test on ACTH-induced treatment-resistant depression model mouse; assay type: in vivo; settings: Example 5, treatment-resistive depression model
Description: The anti-depression activity of the GLP-2 derivative was evaluated by a forced-swim test on a depression model […] using the DMSO solution of GLP-2 derivative as prepared in Example 3.
As the depression model mouse, ddY mice (5-7 week old, male, n=11) were administered with adrenocorticotropic hormone (ACTH) to induce an enhanced state of hypothalamic-pituitary-adrenal axis (HPA system). The administration of ACTH was performed by 0.45 mg/kg/day for consecutive 14 days.
The forced-swim test was performed in the same manner as Example 3 and the immobility time (s) was measured. The mice were intranasally administered with GLP-2 derivative by 3.6 μg as a DMSO solution of GLP-2 derivative, each day for consecutive 6 days until the day for the test. As a control, mice (5-7 week old, male, n=11) were administered with a solvent without GLP-2 derivative by 4 μL each day for consecutive 6 days and subjected to a forced-swim test in the same manner. The error bar represents mean±SE (n=11), and the statistical processing was performed by Mann-Whitney test (*P<0.01).

ddY mice [3] = test: Tail suspension test on a mouse; assay type: in vivo; settings: Example 4, mouse tail suspension test
Description: The anti-depression activity of the GLP-2 derivative was evaluated by a tail suspension test on a mouse, using the DMSO solution of GLP-2 derivative as prepared in Example 3. The test was performed by the following process.
On the day before the test and on the day for the test, ddY mice (5-7 week old, male, n=9) were administered with the GLP-derivative by 3.6 μg, respectively, with the DMSO solution. Then, the mice were suspended by the tail and the immobility time (s) was measured. As a control, mice (5-7 week old, male, n=9) were intranasally administered with a solvent without GLP-2 derivative and subjected to a tail suspension test in the same manner. The error bar represents mean±SE (n=9), and the statistical processing was performed by Mann-Whitney test (*P<0.05).

With “YKVNEYQGPVAPSGGFFLFRPRN-NH2 [NmU, neuromedin U; label printed in b156 where the NmU derivative is probably meant, reference compound]” the “Learning ability in Y-maze test” value [1] was “learning ability is significantly ameliorated”.
For “HADGSFSDEMNTILDNLAARDFINWLIQTKITD [GLP-2]”, the “Effect of suppressing depression” value (ddY mice [2]) was “an effect of suppressing depression is obtained”, the “Immobility time” value (rats; Comparative Example 1: GLP-2 alone, individual animals n=6) was 46 s and 15 s and 45 s and 41 s and 30 s and 33 s and the “Immobility time / anti-depression activity versus control group” value (rats; Mann-Whitney test) was “no significant difference in the anti-depression activity”. The “Effect of suppressing depression” value (depression model mouse) was “an effect of suppressing depression is obtained” and the “Effect of suppressing depression” value (ddY mice [3]) was “an effect of suppressing depression is obtained”.
“FFFFG-(R)8-(G)2-YKVNEYQGPVAPSGGFFLFRPRN-NH2 (not fully specified (N-terminus)) [NmU derivative, derivative of neuromedin U with PAS (FFFFG), octa-arginine and GG spacer]” was tested, and the “Alternation behavior (%)” value ([1]; Example 7: LPS 10 μg three days before test, NmU derivative 3 μg 15 minutes before LPS, individual animals n=6) was 58.6% and 72.4% and 66.7% and 60.0% and 74.1% and 69.4% and the “Alternation behavior (%)” value ([1]; Example 7: Vehicle (mice not administered LPS), NmU derivative 3 μg, individual animals n=6) was 65.9% and 70.5% and 69.0% and 63.9% and 67.8% and 78.8%.
“FFLIPKG-(R)8-(G)2-HAEGTFTSDVSSYLEGQAAKEFIAWLVKGR-NH2 [GLP-1 derivative]” was tested, and the “Alternation behavior (%)” value ([1]; Example 6: LPS 10 μg three days before test, GLP-1 derivative 3 μg 15 minutes before LPS, individual animals n=5) was 64.3% and 66.7% (2×) and 67.9% and 67.4% and the “Alternation behavior (%)” value ([1]; Example 6: Vehicle (mice not administered LPS), GLP-1 derivative 3 μg, individual animals n=5) was 56.4% and 72.2% and 70.3% and 78.6% and 67.6%.
With “HAEGTFTSDVSSYLEGQAAKEFIAWLVKGR-NH2 [GLP-1, glucagon-like peptide-1; label printed in b156 where the GLP-1 derivative is probably meant, reference compound]” the “Learning ability in Y-maze test” value [1] was “learning ability is significantly ameliorated”.
